This is an account of results in patent publication US20050119179A1, “Inositol 1, 4, 5-triphosphate receptor (type 1), phosphorylation and modulation by CDC2” (priority 2003, published 2005).

pKd: −log10 of the molar value.

One experiment deals with IP3 receptor. Kind of experiment: IP3 receptor function in wild type and phosphorylation deficient mutant DT40 cells before and after activation. It counts as cell-based. Particulars: phosphorylation deficient mutant, FIG. 6. The procedure:
The compounds were tested on wild type DT40 cells. The phosphorylation deficient cells were generated by transfecting phosphorylation deficient IP3R mutant cDNAs into triple IP3R deficient DT40 cells. These cells express mutant IP3R with Ser421 and Thr799 replaced by alanine residues. The remaining portion of the receptor is the same as native IP3R.

The next experiment concerns the target T1, native cerebellar IP3R (Mus musculus, UniProt P11881).
T1 construct: host or cells: cerebellum
The following applies: read-out: affinity for IP3; cited from earlier work.

The test system of experiment [1] is IP3R1 phosphorylation at Ser421 and Thr799 in DT40 cells. Kind of experiment: IP3R1 phosphorylation in DT40 cells, immunoblot with αSer421 and αThr799. Particulars: 1 μM nocodazole, 16 h, serum-starved DT40 cells, compared to control cells. It counts as cell-based. The procedure: FIG. 4 IP3R1 phosphorylation at Ser421 and Thr799 occurs in vivo. DT40 cells were serum-starved for 24 h and cultured with and without 1 μM nocodazole (control) for 16 h in RPMI-1640 medium containing 10% FBS. After 16 h in culture, cells were washed two times with PBS, and cell lysates were resolved on 6% SDS-PAGE gels and immunoblotted with αSer^421 (A), αThr^799 (B) or αIP3R1 (C).
Cells were equalized for number and lysed in ice-cold lysis buffer containing 0.5% Nonidet P-40, 25 mM HEPES, pH 7.4, 150 mM NaCl, 1 mM EDTA, 1 mM sodium orthovanadate and protease inhibitors. Cell lysates were centrifuged at 13,000× g in a microcentrifuge, and the supernatants were subjected to immunoblotting and immunoprecipitation (Frangioni and Neal 1993; Matter, et al., 1993). The membranes were blocked in TBST (20 mM Tris/HCl, pH 7.4, 0.9% NaCl, and 0.05% Tween 20) containing 5% nonfat dried milk for 1 hr followed by incubation with primary antibodies. After extensive washings, the membranes were incubated with secondary antibody conjugated to horseradish peroxidase (goat anti-rabbit IgG; Pharmingen, Calif.) in TBST containing 5% nonfat dried milk. The immunoblots were analyzed using an ECL detection system (Amersham, Piscataway, N.J.). […] Phosphoproteins were separated by SDS-PAGE and detected by autoradiography as described (Frangioni and Neal 1993; Means 1994). […]
On the technique in general: Immunoblotting shows a protein as a band on a membrane.

The test system of experiment [2] is syncytial cell death induced by HIV infection. Particulars: inhibition of cdc2 activity; cited from earlier work.

T1 sequence (P11881 whole entry): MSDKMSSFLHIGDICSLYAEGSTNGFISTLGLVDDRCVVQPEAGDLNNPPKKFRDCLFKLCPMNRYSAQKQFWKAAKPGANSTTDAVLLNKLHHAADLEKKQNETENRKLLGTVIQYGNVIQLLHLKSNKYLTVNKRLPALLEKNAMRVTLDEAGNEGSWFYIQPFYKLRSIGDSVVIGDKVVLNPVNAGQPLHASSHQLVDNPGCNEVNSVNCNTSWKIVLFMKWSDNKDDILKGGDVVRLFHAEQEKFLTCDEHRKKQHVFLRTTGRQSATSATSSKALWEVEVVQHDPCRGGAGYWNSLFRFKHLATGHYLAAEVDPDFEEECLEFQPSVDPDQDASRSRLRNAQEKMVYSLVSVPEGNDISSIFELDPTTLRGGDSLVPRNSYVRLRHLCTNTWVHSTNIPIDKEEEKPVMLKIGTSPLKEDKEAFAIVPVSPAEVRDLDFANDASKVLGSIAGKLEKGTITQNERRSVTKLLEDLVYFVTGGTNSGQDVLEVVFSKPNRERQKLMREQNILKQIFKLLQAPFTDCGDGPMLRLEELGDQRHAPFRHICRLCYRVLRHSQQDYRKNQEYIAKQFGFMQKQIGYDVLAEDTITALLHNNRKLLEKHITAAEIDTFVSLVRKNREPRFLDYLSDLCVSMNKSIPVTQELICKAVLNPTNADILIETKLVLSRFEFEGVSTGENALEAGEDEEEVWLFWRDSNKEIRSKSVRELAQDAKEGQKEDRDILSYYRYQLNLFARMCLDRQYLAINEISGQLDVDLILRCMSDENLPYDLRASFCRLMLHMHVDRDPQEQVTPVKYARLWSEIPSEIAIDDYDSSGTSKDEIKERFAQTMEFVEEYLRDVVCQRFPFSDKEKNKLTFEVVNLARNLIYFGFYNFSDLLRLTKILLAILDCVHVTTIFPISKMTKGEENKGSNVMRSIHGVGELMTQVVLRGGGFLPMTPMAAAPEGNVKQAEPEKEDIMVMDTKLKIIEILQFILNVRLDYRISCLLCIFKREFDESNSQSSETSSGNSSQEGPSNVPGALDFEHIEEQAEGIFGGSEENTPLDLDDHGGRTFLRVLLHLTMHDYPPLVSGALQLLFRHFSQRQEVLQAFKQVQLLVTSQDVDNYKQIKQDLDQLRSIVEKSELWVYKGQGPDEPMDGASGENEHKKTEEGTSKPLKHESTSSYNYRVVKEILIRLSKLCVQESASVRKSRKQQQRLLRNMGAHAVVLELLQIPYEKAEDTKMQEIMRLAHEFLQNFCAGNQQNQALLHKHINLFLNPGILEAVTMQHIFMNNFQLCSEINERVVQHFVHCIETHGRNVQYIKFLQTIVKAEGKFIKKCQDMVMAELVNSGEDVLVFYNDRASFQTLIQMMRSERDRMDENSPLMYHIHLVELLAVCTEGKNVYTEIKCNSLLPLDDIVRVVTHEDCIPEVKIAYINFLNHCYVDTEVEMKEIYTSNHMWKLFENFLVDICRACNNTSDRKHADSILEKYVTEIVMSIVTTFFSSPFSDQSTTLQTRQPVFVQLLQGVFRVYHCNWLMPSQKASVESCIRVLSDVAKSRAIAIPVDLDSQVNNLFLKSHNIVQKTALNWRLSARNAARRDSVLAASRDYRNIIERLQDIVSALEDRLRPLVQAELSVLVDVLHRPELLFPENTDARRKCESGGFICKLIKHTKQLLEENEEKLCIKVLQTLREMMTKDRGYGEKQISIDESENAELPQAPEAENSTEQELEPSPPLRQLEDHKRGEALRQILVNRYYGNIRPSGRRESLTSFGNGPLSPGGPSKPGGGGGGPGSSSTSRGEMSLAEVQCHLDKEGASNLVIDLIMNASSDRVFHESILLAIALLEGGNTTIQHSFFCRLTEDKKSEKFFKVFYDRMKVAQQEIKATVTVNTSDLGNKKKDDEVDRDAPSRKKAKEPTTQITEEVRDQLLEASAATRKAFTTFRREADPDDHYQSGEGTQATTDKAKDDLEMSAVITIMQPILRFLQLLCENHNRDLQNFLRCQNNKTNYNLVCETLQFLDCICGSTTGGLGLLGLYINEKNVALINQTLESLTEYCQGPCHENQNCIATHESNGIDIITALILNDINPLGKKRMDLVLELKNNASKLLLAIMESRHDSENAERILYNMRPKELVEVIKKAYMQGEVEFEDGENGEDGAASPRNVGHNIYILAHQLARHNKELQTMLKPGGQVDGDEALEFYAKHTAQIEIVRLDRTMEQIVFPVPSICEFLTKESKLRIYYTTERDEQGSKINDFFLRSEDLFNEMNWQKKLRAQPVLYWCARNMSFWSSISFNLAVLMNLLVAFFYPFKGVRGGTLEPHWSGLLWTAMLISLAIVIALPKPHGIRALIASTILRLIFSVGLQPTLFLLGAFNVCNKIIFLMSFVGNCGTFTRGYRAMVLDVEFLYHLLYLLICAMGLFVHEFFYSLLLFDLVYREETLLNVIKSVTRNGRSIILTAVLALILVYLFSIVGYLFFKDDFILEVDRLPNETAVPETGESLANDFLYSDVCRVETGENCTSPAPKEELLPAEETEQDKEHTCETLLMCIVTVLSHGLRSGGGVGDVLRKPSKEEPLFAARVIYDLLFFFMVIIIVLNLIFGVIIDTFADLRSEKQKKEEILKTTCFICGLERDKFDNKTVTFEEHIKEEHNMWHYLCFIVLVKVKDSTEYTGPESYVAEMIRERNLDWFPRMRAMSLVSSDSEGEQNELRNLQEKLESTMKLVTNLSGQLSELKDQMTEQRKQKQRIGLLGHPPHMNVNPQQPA

In the case of `NCCOB(c1ccccc1)c1ccccc1` [2-APB], in the experiment with IP3 receptor, the IP3 receptor function result is given as “affect IP3 receptor function”. `O=P(O)(O)O[C@@H]1[C@H](O)[C@H](O)[C@@H](OP(=O)(O)O)[C@H](OP(=O)(O)O)[C@H]1O` [IP3, inositol 1,4,5-trisphosphate]: the pKd on native cerebellar IP3R was 7.08. Take `COC(=O)Nc1nc2ccc(C(=O)c3cccs3)cc2[nH]1` [Nocodazole, nocodazole]: the “IP3R1 phosphorylation at both Ser421 and Thr799” value in experiment [1] was “greatly enhanced IP3R1 phosphorylation”. `CC[C@H](CO)Nc1nc(NCc2ccccc2)c2ncn(C(C)C)c2n1` [roscovitine]: the “syncytial cell death induced by HIV infection” value in experiment [2] was “prevented syncytial cell death”. In the case of Xestospongin, the IP3 receptor function entry in the experiment on IP3 receptor is “affect IP3 receptor function”.
